The record followed here is ChEMBL document CHEMBL4433201, “Progress in the development of selective heme oxygenase-1 inhibitors and their potential therapeutic application” (Eur J Med Chem, 2019).

pIC50: −log10 of the molar value.

Assay [1] concerns the target T1, Heme oxygenase 2 (Homo sapiens, UniProt P30519).
T1 sequence (P30519 whole entry): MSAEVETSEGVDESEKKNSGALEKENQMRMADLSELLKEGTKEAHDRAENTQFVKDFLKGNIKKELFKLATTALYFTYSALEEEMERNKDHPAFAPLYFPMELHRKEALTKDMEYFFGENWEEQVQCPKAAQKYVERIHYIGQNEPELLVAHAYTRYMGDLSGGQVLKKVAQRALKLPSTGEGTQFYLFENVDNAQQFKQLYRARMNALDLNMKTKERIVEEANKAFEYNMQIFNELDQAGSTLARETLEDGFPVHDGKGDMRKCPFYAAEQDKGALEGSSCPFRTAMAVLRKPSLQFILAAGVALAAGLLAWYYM
The assay can be described thus: Inhibition of HO-2 (unknown origin).

The target of assay [2] is T2, Heme oxygenase 1 (Rattus norvegicus, UniProt P06762).
T2 sequence (P06762 whole entry): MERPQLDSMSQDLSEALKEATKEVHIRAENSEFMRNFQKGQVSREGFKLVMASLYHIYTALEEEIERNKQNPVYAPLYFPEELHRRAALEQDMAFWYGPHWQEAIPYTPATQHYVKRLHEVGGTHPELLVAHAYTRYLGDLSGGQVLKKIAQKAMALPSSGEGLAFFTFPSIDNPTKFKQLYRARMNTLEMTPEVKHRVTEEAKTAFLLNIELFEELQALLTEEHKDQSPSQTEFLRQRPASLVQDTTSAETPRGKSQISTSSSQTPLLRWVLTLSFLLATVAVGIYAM
The assay can be described thus: Inhibition of HO-1 in Sprague-Dawley rat spleen microsomes using NADPH as substrate incubated for 60 mins by spectrometry based assay.

Assay [3] concerns the target T3, Heme oxygenase 1 (Homo sapiens, UniProt P09601).
T3 sequence (P09601 whole entry): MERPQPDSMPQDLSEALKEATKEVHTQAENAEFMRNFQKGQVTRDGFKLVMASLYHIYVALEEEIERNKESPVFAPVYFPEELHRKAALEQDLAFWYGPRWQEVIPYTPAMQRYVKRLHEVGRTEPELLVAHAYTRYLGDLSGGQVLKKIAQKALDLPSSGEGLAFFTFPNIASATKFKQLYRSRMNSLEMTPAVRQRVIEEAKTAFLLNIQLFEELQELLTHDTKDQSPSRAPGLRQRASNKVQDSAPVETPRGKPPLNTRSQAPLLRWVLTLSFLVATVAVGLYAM
The assay can be described thus: Inhibition of human recombinant HO-1 by spectrometry based assay.

Assay [4] can be described thus: Growth inhibition of […] B16 cells incubated for 72 hrs by sulforhodamine B assay. The format is functional. The note with it: B16, 72 h. In general terms: Sulforhodamine B stains cellular protein and so reports cell mass.
Assay [5] has as its target T4, Heme oxygenase 2 (Rattus norvegicus, UniProt P23711).
T4 sequence (P23711 whole entry): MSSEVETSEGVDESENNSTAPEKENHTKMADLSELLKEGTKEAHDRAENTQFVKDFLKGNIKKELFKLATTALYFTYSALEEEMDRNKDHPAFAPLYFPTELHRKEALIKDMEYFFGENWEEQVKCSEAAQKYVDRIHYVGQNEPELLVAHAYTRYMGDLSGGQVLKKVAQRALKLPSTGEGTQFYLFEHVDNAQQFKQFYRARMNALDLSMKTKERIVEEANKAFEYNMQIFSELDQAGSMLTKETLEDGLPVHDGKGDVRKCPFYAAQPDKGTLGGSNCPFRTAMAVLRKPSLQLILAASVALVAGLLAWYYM
The assay can be described thus: Inhibition of HO-2 in Sprague-Dawley rat brain microsomes using NADPH as substrate preincubated for 10 mins followed by substrate addition and measured after 15 mins by GC analysis.

Assay [6] addresses T2, Heme oxygenase 1. The experiment in a line: Inhibition of HO-1 in Sprague-Dawley rat spleen microsomes using NADPH as substrate preincubated for 10 mins followed by substrate addition and measured after 15 mins by GC analysis.

By pIC50 is commonly meant the negative decadic logarithm of the IC50, by convention in mol/L.

With `O=C(Cn1ccnc1)C12CC3CC(CC(C3)C1)C2`, the pIC50 on Heme oxygenase 2 [1] was < 4.00.
`O=[N+]([O-])c1ccc(C(O)Cn2ccnc2)cc1` (stereo not given): the negative-log IC50 (pIC50) at Heme oxygenase 1 [2] is 5.00.
Turning to `O=C(Cn1ccnc1)c1ccc(Br)cc1`, the pIC50 against Heme oxygenase 1 [2] was 5.60.
Consider `c1ccc(OCCn2ccnc2)cc1`, for which the pIC50 at Heme oxygenase 1 [2] was 4.55.
For `OC(Cn1ccnc1)c1ccc(-c2ccc(Br)cc2)cc1` (stereo not given), the pIC50 at Heme oxygenase 1 [3] is 7.22.
As for `OC(Cn1ccnc1)c1cccc(Br)c1` (stereo not given), the pIC50 in assay [4] is 4.43.
On to `FC(F)(F)c1ccc(COc2ccc(CCn3ccnc3)cc2)cc1`, for which the pIC50 at Heme oxygenase 1 [3] is 4.27.
With `Brc1ccc(Cn2c(CN3CCOCC3)nc3ccccc32)cc1`, the values for the pIC50 on Heme oxygenase 2 [5] and against Heme oxygenase 1 [6] were 4.52 and < 4.00, respectively.
Taken in the same sequence, the figures for `Brc1ccc(Cn2c(CC3CCCCC3)nc3ccccc32)cc1` were 5.27 and < 4.00.
Taken in the same sequence, the figures for `Clc1ccc(Cn2c(CC3CC4CCC3C4)nc3ccccc32)cc1` (stereo not given) were 5.37 and < 4.00.
On to `Brc1ccc(CCCCn2ccnc2)cc1`, for which the pIC50 at Heme oxygenase 1 [3] was 6.60.
Take `Clc1ccc(Cn2c(CC3CCCCC3)nc3ccccc32)cc1`: the pIC50 at Heme oxygenase 2 [5] is 5.27; against Heme oxygenase 1 [6], < 4.00.
Taken in the same sequence, the figures for `Brc1ccc(Cn2c(Cn3ccnc3)nc3ccccc32)cc1` were 5.38 and 5.57.
On to `Clc1ccc(Cn2c(CC3CCCC3)nc3ccccc32)cc1`, for which the negative-log IC50 (pIC50) at Heme oxygenase 2 [5] is 5.48; at Heme oxygenase 1 [6] it was 4.49.
For the compound `c1ccc(COc2ccc(CCn3ccnc3)cc2)cc1`, the pIC50 at Heme oxygenase 1 [3] is 6.05.
On to `Clc1ccc(Cn2c(CN3CCOCC3)nc3ccccc32)cc1`, for which the values for the pIC50 against Heme oxygenase 2 [5] and at Heme oxygenase 1 [6] were 4.50 and < 4.00, respectively.
With `Brc1ccc(Cn2c(CC3CC4CCC3C4)nc3ccccc32)cc1` (stereo not given), the values for the negative-log IC50 (pIC50) at Heme oxygenase 2 [5] and against Heme oxygenase 1 [6] were 5.29 and < 4.00, respectively.
As for `COc1ccc2[nH]c(=O)c(-c3nc(-c4ccccc4)c(-c4ccccc4)[nH]3)cc2c1`, the pIC50 against Heme oxygenase 1 [2] was 5.04.
The compound `Brc1cccc(OCCCCn2ccnc2)c1` showed a pIC50 at Heme oxygenase 2 [1] of 5.66.
Compound `Brc1ccc(OCCCCCCn2ccnc2)cc1` had a pIC50 against Heme oxygenase 1 [2] of 5.00.
As to `Brc1ccc(CCC2(Cn3ccnc3)OCCO2)cc1`, the pIC50 at Heme oxygenase 2 [1] was < 4.00; at Heme oxygenase 1 [3], 5.72.
